Laboratory results reported in the supplement of paper PMC7840683.

Tested on: HepaRG
Test: LDH release cytotoxicity, % of total lysis control; higher = more cytotoxic
Settings: 48 h
Outline: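 Single-lot HepaRG cells on collagen I-coated 96-well plates were exposed for 48 h in duplicate, in serum-free induction medium with 0.5% DMSO, to eight-point half-log series (test chemicals top 100 µM). Total lysis wells received 0.1% Triton X, and LDH leakage into 50 µL spent medium was read as resorufin fluorescence (CytoTox-ONE, Tecan Safire). Percent cytotoxicity was normalized to on-plate vehicle and total lysis controls and averaged over the duplicates.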

COC1C(OC(=O)NC(=O)CCl)CCC2(CO2)C1C1(C)OC1CC=C(C)C (stereo not drawn) [o-(Chloroacetylcarbamoyl)fumagillol]
Settings | LDH release cytotoxicity [%]
0.01012 µM | -1.03
0.032 µM | -2.16
0.101193 µM | -2.32
0.32 µM | -2.5
1.01193 µM | -1.78
3.2 µM | -1.64
10.1193 µM | -0.944
32 µM | 0.233

Cc1cc(N=Nc2ccccc2C)ccc1N [o-Aminoazotoluene]
Settings | LDH release cytotoxicity [%]
0.03162 µM | 1.25
0.1 µM | 0.0136
0.3162278 µM | -0.529
1 µM | -1.5
3.16228 µM | 0.597
10 µM | -0.361
31.6228 µM | -0.392
100 µM | 1.11

Cc1ccccc1O [o-Cresol]
Settings | LDH release cytotoxicity [%]
0.03162 µM | -1.5
0.1 µM | -1.22
0.3162278 µM | -1.45
1 µM | -2.213
3.16228 µM | -1.71
10 µM | -0.686
31.6228 µM | -0.0502
100 µM | 12.99

Clc1ccc(C(c2ccc(Cl)cc2)C(Cl)Cl)cc1 [p,p'-DDD]
Settings | LDH release cytotoxicity [%]
0.03162 µM | -1.25
0.1 µM | -1.27
0.3162278 µM | -2.03
1 µM | -1.62
3.16228 µM | -0.977
10 µM | -1.35
31.6228 µM | -1.4
100 µM | 0.26

ClC(Cl)=C(c1ccc(Cl)cc1)c1ccc(Cl)cc1 [p,p'-DDE]
Settings | LDH release cytotoxicity [%]
0.03162 µM | -0.311
0.1 µM | -0.017
0.3162278 µM | -0.636
1 µM | -0.675
3.16228 µM | 0.0542
10 µM | -0.0981
31.6228 µM | 0.0466
100 µM | 0.471

Brc1ccc(Oc2ccccc2)cc1 [p-Bromodiphenyl ether]
Settings | LDH release cytotoxicity [%]
0.03162 µM | -0.849
0.1 µM | -1.4
0.3162278 µM | -1.66
1 µM | -1.42
3.16228 µM | -0.77
10 µM | -0.841
31.6228 µM | 0.599
100 µM | 3.7

Cc1ccc(O)cc1 [p-Cresol]
Settings | LDH release cytotoxicity [%]
0.03162 µM | -0.87
0.1 µM | -2.34
0.3162278 µM | -1.45
1 µM | -0.608
3.16228 µM | -1.02
10 µM | -1.22
31.6228 µM | -0.051
100 µM | 1.76

Cc1ccc(C(C)C)cc1 [p-Cymene]
Settings | LDH release cytotoxicity [%]
0.01581 µM | -0.487
0.05 µM | -1.9
0.1581139 µM | -3.02
0.5 µM | -2.63
1.5811388 µM | -1.96
5 µM | -2.1
15.8114 µM | -1.51
50 µM | 0.041

CC(C)(C)OOC(=O)c1ccccc1 [tert-Butyl perbenzoate]
Settings | LDH release cytotoxicity [%]
0.03162 µM | -1.33
0.1 µM | -1.77
0.3162278 µM | -1.063
1 µM | -2.35
3.16228 µM | -1.04
10 µM | -1.63
31.6228 µM | -0.865
100 µM | 0.38

CC(C)(C)c1ccccc1 [tert-Butylbenzene]
Settings | LDH release cytotoxicity [%]
0.03162 µM | -3.19
0.1 µM | -2.41
0.3162278 µM | -1.88
1 µM | -2.09
3.16228 µM | -1.34
10 µM | -1.35
31.6228 µM | -0.245
100 µM | 0.779

CC(C)(C)c1cc(O)ccc1O [tert-Butylhydroquinone]
Settings | LDH release cytotoxicity [%]
0.03162 µM | -1.59
0.1 µM | -1.78
0.3162278 µM | -2.28
1 µM | -2.78
3.16228 µM | -3.35
10 µM | -3.59
31.6228 µM | -4.19
100 µM | -3.84
